Assay results: PubChem BioAssay AID2051 (NMMLSC, 2009)
Active and inactive are the calls of the source.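 How the source made its calls: active means EC50 of 30 microM or lower and a span of response of at least a set limit; inactive means the rest.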

Target: Ras-related C3 botulinum toxin substrate 1 (Homo sapiens) (UniProt P63000)
Assay: activated mutant Rac1 GTP binding inhibitors, SAR follow-up, biochemical, oxadiazole analogs, multiplex bead flow cytometry (AID 2051)
Conditions: Bead-based flow cytometry, Bodipy-FL-GTP binding to GST-Rac1; for Ki: measured here: Ki calculated from EC50

SMILES | EC50 | Ki
COc1ccc(-c2noc(CC(=O)N3CCN(c4cc(C)ccc4C)CC3)n2)cc1 | inactive | 1320 nM
COc1ccc(-c2noc(CCC(=O)N3CCN(c4cccc(Cl)c4)CC3)n2)cc1 | 7340 nM | 670 nM
COc1cccc(-c2noc(CCC(=O)N3CCN(c4cc(C)ccc4C)CC3)n2)c1 | 5780 nM | 530 nM
Cc1ccc(C)c(N2CCN(C(=O)CCc3nc(-c4ccccc4Br)no3)CC2)c1 | 2150 nM | 200 nM
COc1ccc(-c2noc(CCC(=O)N3CCN(c4ccc(Br)cc4)CC3)n2)cc1 | inactive | 300 nM
COc1ccc(-c2cccc(CCC(=O)N3CCN(c4cc(C)ccc4C)CC3)c2)cc1 | inactive | 910 nM
Cc1ccc(C)c(N2CCN(C(=O)CCc3nc(-c4cccc(Cl)c4)no3)CC2)c1 | 5120 nM | 470 nM
COc1ccc(-c2noc(CCC(=O)N3CCN(c4cc(C)ccc4C)CC3)n2)cc1 | 5900 nM | 540 nM
COc1ccc(-c2noc(CCC(=O)N3CCN(c4ccc(Cl)cc4)CC3)n2)cc1 | inactive | –
COc1ccc(-c2noc(CCC(=O)N3CCN(c4ccc(OC)cc4)CC3)n2)cc1 | inactive | 60 nM
Cc1ccc(C)c(N2CCN(C(=O)CCc3nc(-c4ccccc4C)no3)CC2)c1 | 2010 nM | 180 nM
COc1ccc(-c2noc(CCC(=O)N3CCN(c4cccc(F)c4)CC3)n2)cc1 | inactive | –
Cc1ccc(C)c(N2CCN(C(=O)CCc3nc(-c4ccccc4)no3)CC2)c1 | 2790 nM | 250 nM
COc1ccc(-c2noc(CCC(=O)N3CCN(c4cccc(C(F)(F)F)c4)CC3)n2)cc1 | inactive | 830 nM
Cc1cccc(-c2noc(CCC(=O)N3CCN(c4cc(C)ccc4C)CC3)n2)c1 | 1920 nM | 170 nM
COc1ccc(-c2noc(CCC(=O)N3CCN(c4ccc(F)cc4)CC3)n2)cc1 | inactive | 80 nM
COc1ccc(-c2noc(CCC(=O)N3CCN(c4ccccc4F)CC3)n2)cc1 | 2510 nM | 230 nM
COc1ccc(-c2noc(CCC(=O)N3CCN(c4ccccc4Br)CC3)n2)cc1 | 2240 nM | 200 nM
Cc1ccc(-c2noc(CCC(=O)N3CCN(c4cc(C)ccc4C)CC3)n2)cc1 | 3320 nM | 300 nM
COc1ccc(-c2noc(CCC(=O)N3CCN(c4ccccc4Cl)CC3)n2)cc1 | 4940 nM | 450 nM
COc1ccc(-c2noc(CCC(=O)N3CCN(c4ccc(C)cc4)CC3)n2)cc1 | inactive | 140 nM
Cc1ccc(C)c(N2CCN(C(=O)CCc3nc(-c4cccc(F)c4)no3)CC2)c1 | 2550 nM | 230 nM
COc1ccc(-c2noc(CCC(=O)N3CCN(c4cccc(OC)c4)CC3)n2)cc1 | inactive | 890 nM
COc1ccc(-c2noc(CCC(=O)N3CCN(c4ccccc4)CC3)n2)cc1 | inactive | 160 nM
COc1ccc(-c2cc(CCC(=O)N3CCN(c4cc(C)ccc4C)CC3)on2)cc1 | inactive | 190 nM
COc1ccccc1-c1noc(CCC(=O)N2CCN(c3cc(C)ccc3C)CC2)n1 | inactive | 480 nM

SMILES | EC50 | Ki
Cc1ccc(C)c(N2CCN(C(=O)CCc3nc(-c4ccc(F)cc4)no3)CC2)c1 | 1370 nM | 120 nM
COc1ccc(-c2ccc(CCC(=O)N3CCN(c4cc(C)ccc4C)CC3)[nH]2)cc1 | inactive | 480 nM
Cc1ccc(C)c(N2CCN(C(=O)CCc3nc(-c4ccc(C(F)(F)F)cc4)no3)CC2)c1 | 1950 nM | 180 nM
Cc1ccc(C)c(N2CCN(C(=O)CCc3nc(-c4ccccc4C(F)(F)F)no3)CC2)c1 | 2700 nM | 250 nM
COc1ccc(-c2noc(CCC(=O)N3CCC(c4cc(C)ccc4C)CC3)n2)cc1 | inactive | 230 nM
Cc1ccc(C)c(N2CCN(C(=O)CCc3nc(-c4ccc(N(C)C)cc4)no3)CC2)c1 | 4100 nM | 370 nM
COc1ccc(-c2noc(CCC(=O)N3CCN(c4cccc(C)c4C)CC3)n2)cc1 | 1540 nM | 140 nM
COc1ccc(-c2noc(CCC(=O)N3CCN(c4ccc(C(F)(F)F)cc4)CC3)n2)cc1 | inactive | –
Cc1ccc(C)c(N2CCN(C(=O)CCc3nc(-c4ccc(Cl)cc4)no3)CC2)c1 | 2250 nM | 200 nM
Cc1ccc(C)c(N2CCN(C(=O)CCc3nc(-c4cccc(C(F)(F)F)c4)no3)CC2)c1 | 3380 nM | 310 nM
Cc1ccc(C)c(N2CCN(C(=O)CCc3nc(-c4ccc(Br)cc4)no3)CC2)c1 | 3020 nM | 270 nM
COc1ccc(-c2noc(CCC(=O)N3CCN(c4cccc(Br)c4)CC3)n2)cc1 | 20600 nM | 1870 nM
COc1ccc(-c2noc(CCC(=O)N3CCN(c4ccccc4C)CC3)n2)cc1 | 1480 nM | 130 nM
COc1ccc(-c2noc(CCC(=O)N3CCN(c4cccc(C)c4)CC3)n2)cc1 | inactive | –
COc1ccc(-c2noc(CCC(=O)N3CCN(c4ccccc4C(F)(F)F)CC3)n2)cc1 | 2010 nM | 180 nM
COc1ccc(-c2cc(CCC(=O)N3CCN(c4cc(C)ccc4C)CC3)[nH]n2)cc1 | inactive | –
COc1ccc(-c2ccc(CCC(=O)N3CCN(c4cc(C)ccc4C)CC3)s2)cc1 | inactive | –
COc1ccc(-c2ccc(CCC(=O)N3CCN(c4cc(C)ccc4C)CC3)o2)cc1 | inactive | –
COc1ccc(-c2noc(CCCCC(=O)N3CCN(c4cc(C)ccc4C)CC3)n2)cc1 | inactive | 1060 nM
Cc1ccc(C)c(N2CCN(C(=O)CCc3nc(-c4ccccc4Cl)no3)CC2)c1 | 1370 nM | 120 nM
Cc1ccc(C)c(N2CCN(C(=O)CCc3nc(-c4ccccc4F)no3)CC2)c1 | 2250 nM | 200 nM
Cc1ccc(C)c(N2CCN(C(=O)CCc3nc(-c4cccc(Br)c4)no3)CC2)c1 | 2140 nM | 190 nM
COc1ccc(-c2noc(CCCC(=O)N3CCN(c4cc(C)ccc4C)CC3)n2)cc1 | 8220 nM | 750 nM
COc1ccc(-c2noc(CCC(=O)N3CCN(c4ccccc4OC)CC3)n2)cc1 | 3800 nM | 350 nM
COc1ccc(-c2coc(CCC(=O)N3CCN(c4cc(C)ccc4C)CC3)n2)cc1 | 2840 nM | 260 nM
